In patent US20240174634A1, “Aldehyde Dehydrogenase Inhibitors and Their Therapeutic Use” (priority 2020, published 2024) one finds IC50 data, which are given here for eleven compounds.

SMILES strings stand for the structures. pIC50: −log10 of the molar value.

The pIC50 is the negative decadic logarithm of the IC50, by convention in mol/L. A high value points to a low IC50.

This experiment deals with T1, ALDH1A3 (Homo sapiens, UniProt P47895).
T1 sequence (P47895 1-512): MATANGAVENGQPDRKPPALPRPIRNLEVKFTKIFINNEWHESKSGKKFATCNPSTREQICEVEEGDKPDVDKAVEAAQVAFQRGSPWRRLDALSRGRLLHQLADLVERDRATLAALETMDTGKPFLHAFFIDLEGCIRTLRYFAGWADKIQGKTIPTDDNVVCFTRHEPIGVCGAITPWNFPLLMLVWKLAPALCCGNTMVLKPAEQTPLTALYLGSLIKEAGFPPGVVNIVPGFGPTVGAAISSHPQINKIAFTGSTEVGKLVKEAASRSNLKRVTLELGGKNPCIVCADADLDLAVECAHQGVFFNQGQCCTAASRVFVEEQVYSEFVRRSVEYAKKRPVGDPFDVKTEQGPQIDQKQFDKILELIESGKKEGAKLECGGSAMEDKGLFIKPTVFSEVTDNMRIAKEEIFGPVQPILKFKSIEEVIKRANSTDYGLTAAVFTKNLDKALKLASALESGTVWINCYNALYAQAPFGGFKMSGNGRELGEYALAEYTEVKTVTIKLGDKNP
The experiment in a line: Primary biochemical assay, NAD(P)H-Glo Detection System. Also on record: His-tag; made in house; host or cells: E. coli Rosetta (DE3). The settings on record: 30 min pre-incubation, propionaldehyde and NAD at Km. The method in brief:
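Recombinant full-length His-tagged human enzymes expressed in E. coli were pre-incubated 30 min at room temperature with compound (10-point, 3-fold series; top 20 μM for ALDH1A3, 250 μM for ALDH1A1/1A2). Propionaldehyde and NAD were then added at Km; NADH was read by NAD(P)H-Glo luminescence. Buffer: Tris (pH 7.6 for 1A1/1A2, 9.0 for 1A3), 1 mM TCEP, 0.01% Tween-20.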
In turn, `O=C1CCc2cc(OCCN(CCO)Cc3cccnc3)ccc2N1` [ALDHI-3005, 6-[2-[2-hydroxyethyl(3-pyridylmethyl)amino]ethoxy]-3,4-dihydro-1H-quinolin-2-one] gave a pIC50 above 7.00.

`CN(CCOc1ccc2c(c1)CCC(=O)N2)C(=O)c1cccnc1` [ALDHI-3013, N-methyl-N-[2-[(2-oxo-3,4-dihydro-1H-quinolin-6-yl)oxy]ethyl]pyridine-3-carboxamide] gave a pIC50 of 6.00 to 7.00.

Turning to `C[C@@H](c1ccccc1)N(CCO)CCOc1ccc2c(c1)CCC(=O)N2` [ALDHI-3007, 6-[2-[2-hydroxyethyl-[(1S)-1-phenylethyl]amino]ethoxy]-3,4-dihydro-1H-quinolin-2-one], the pIC50 is 6.00 to 7.00.

With `O=C1CCc2cc(OCCN3CCCCC3c3cccc(F)c3)ccc2N1` (centres unmarked) [ALDHI-2038, 6-[2-[2-(3-fluorophenyl)-1-piperidyl]ethoxy]-3,4-dihydro-1H-quinolin-2-one], the pIC50 was above 7.00.

`CC1Oc2cc(OCCN3CCCC3c3cccc(F)c3)ccc2NC1=O` (centres unmarked) [ALDHI-2044, 7-[2-[2-(3-fluorophenyl)pyrrolidin-1-yl]ethoxy]-2-methyl-4H-1,4-benzoxazin-3-one] gave a pIC50 above 7.00.

Take `CN(CCOc1ccc2c(c1)CCC(=O)N2)C(CO)c1cccc(F)c1` (centres unmarked) [ALDHI-3003, 6-[2-[[1-(3-fluorophenyl)-2-hydroxy-ethyl]-methyl-amino]ethoxy]-3,4-dihydro-1H-quinolin-2-one]: the pIC50 is 6.00 to 7.00.

Turning to `CCN(CC)CCN(CCOc1ccc2c(c1)CCC(=O)N2)Cc1ccccc1` [ALDHI-3004, 6-[2-[benzyl-[2-(diethylamino)ethyl]amino]ethoxy]-3,4-dihydro-1H-quinolin-2-one], the pIC50 is 6.00 to 7.00.

In turn, `O=C1CCc2cc(OCCN3CCCC3c3cccc(F)c3)c(F)cc2N1` (centres unmarked) [ALDHI-2050, 7-fluoro-6-[2-[2-(3-fluorophenyl)pyrrolidin-1-yl]ethoxy]-3,4-dihydro-1H-quinolin-2-one] had a pIC50 above 7.00.

On to `O=C1CCc2cc(OCCn3ccnc3-c3ccccc3)ccc2N1` [ALDHI-2041, 6-[2-(2-phenylimidazol-1-yl)ethoxy]-3,4-dihydro-1H-quinolin-2-one], for which the negative logarithm of the IC50 (pIC50) was 6.00 to 7.00.

Compound `CCn1cc(C2CCCN2CCOc2ccc3c(c2)CCC(=O)N3)cn1` (centres unmarked) [ALDHI-2016, 6-[2-[2-(1-ethylpyrazol-4-yl)pyrrolidin-1-yl]ethoxy]-3,4-dihydro-1H-quinolin-2-one] had a pIC50 of 6.00 to 7.00.

On to `CN(CCOc1ccc2c(c1)CCC(=O)N2)Cc1cccc(F)c1` [ALDHI-3001, 6-[2-[(3-fluorophenyl)methyl-methyl-amino]ethoxy]-3,4-dihydro-1H-quinolin-2-one], for which the pIC50 was 6.00 to 7.00.
